# Test results taken from patent publication US20260263468A1 (Fundación Instituto de Investigación Sanitaria Fundación …, priority 2023, published 2026).
# “And” between values parts separate entries of the source, which are not always exact repeats. Identical values can stand only once.
# Key:
# C2C12 [1] = assay: Western blot of phosphorylated AMPK; assay type: cell-based; conditions: 1 μM, day 4, vs basal
# Method: (§1) Cells were lysed with RIPA buffer and protein concentration was determined by BCA. […] Variations in intensity were expressed as % of basal (day 0) and expressed as mean±SEM. All results were calculated as a percentage of non-differentiated controls to minimize the intrinsic variation among different experiments.
# We next studied if these changes in AMP/ATP ratio had any effect in AMPK activation.
# C2C12 [2] = assay: Western blot of PKA isoforms, pCREB, EPAC1/2; assay type: cell-based
# Method: as §1
# To study the CAMP signaling pathway, we analyzed the expression of PKA on its three catalytic isoforms PKAα, PKAβ and PKAγ as well as EPAC1/2. […] Tenofovir reduced its phosphorylation (154±9% tenofovir vs 247±30% control at day 4, p<0.05, FIG. 3B).
# [3] = mice, tenofovir 75 mg/Kg/day; cited from earlier work
# C2C12 [4] = assay: cAMP concentration (ELISA); assay type: cell-based; conditions: myoblast, 1 μM, 5 minutes; control 0.58±0.13
# Method: CAMP concentration was measured using the colorimetric cAMP ELISA kit following manufacture protocol for acetylated cell lysates (Cell Biolabs, San Diego, USA). Absorbance was measured at 450 nm using a microplate reader Tecan Spark 20M.
# The CAMP signaling cascade has been linked to a delay in the onset of age-related muscle loss.
# C2C12 [5] = assay: Nucleotide concentration by HPLC during C2C12 differentiation; assay type: cell-based
# Method: Supernatant and cell lysate are collected every day. Cells were lysated with a homemade buffer (1 mM phenylmethylsulfonyl fluoride, 1 mM protease inhibitor cocktail, 1 mM sodium orthovanadate, 1 mM sodium fluoride and 1 mM β-glicerophospate) and supernatant was used directly. A heat shock step was done at 98° C. for 2 min, and to avoid adenosine degradation 1 μM EHNA was added at the time of heating. All samples were centrifuged at 13000 g for 10 min at 4° C. and supernatants were collected and stored at −80° C. until use. Inosine, adenosine, AMP, ADP and ATP concentrations were determined with high performance liquid chromatography (HPLC) using a liquid chromatograph with a reversed phase column (Agilent 1100 Series Liquid Chromatography) and an UV detector set at 254 nm. Buffer composed of 0.1 mol/L KH2PO4 (pH 7.5) and 18% acetonitrile was run at 1.5 ml/min for 20 min. Compounds were identified and quantified by their retention times and peak areas of known standards, calibrated by spectrophotometry. […] The results have been corrected and expressed as mean±SEM. All results were calculated as a percentage of controls without differentiation state.
# C2C12 [6] = assay: Western blot of adenosine receptors, P2X7 and Panx-1 during differentiation; assay type: cell-based
# Method: as §1
# The expression of adenosine receptors, P2X7 receptor and Panx-1 channel was analyzed during myoblast differentiation.
# C2C12 cells = assay: Cell proliferation assay (AlamarBlue); assay type: cell-based; conditions: 24 h after 2% HS addition, control 100±7.3%
# Method: C2C12 cells (American Type Culture Collection, ATCC, Manassas, VA, USA) were cultured in DMEM supplemented with 10% FBS and 1% penicillin-streptomycin. To induce myogenic differentiation, 70% confluence C2C12 cells were culture in DMEM containing 2% HS (horse serum). Cells were maintained in a humidified chamber at 37° C., in 95% air and 5% CO2. Media was replaced with fresh every 48h.
# C2C12 cells were plated in 96-well plates (Corning, Cultek, Spain) (12.500 cells/well). Cell proliferation was measured using AlamarBlue assay according to the manufacturer's instructions, at 24 and 48 h of myogenic differentiation.
# C2C12 [7] = assay: AMPK phosphorylation assay kit (short time points); assay type: cell-based; conditions: myoblast, 1 μM, 10 min after switching to 2% HS; control 1.97±0.17
# Method: Assay was performed with the AMPK phosphorilation assay kit (Abnova Corporation, Jhouzih St, Taiwan) as manufactor instructions and pAMPK was measured at λex/em 530/585 nm and 360/450 nm for total protein with Tecan Infinite.
# C2C12 [8] = assay: Western blot of myogenesis markers during differentiation; assay type: cell-based
# Method: as §1
# C2C12 myoblast cell line = assay: Western blot of C2C12 under pro-inflammatory conditions with/without dipyridamole; conditions: for PAX7 expression (vs 100% basal): IL-6 2.5 μg/ml, INFγ 1 μg/ml or LPS 10 μg/ml ± dipyridamole 1 μM, control 64.7±5%; for PAX7 expression (vs 100% basal) / AMPK activation / CREB activation / MHC expression (vs 100% basal) / PKAα expression: day 4; for A2BR expression / AMPK activation / CREB activation / MHC expression (vs 100% basal): cytokine/LPS ± dipyridamole 1 μM; for AMPK activation: control 222.7±23.9%; for CREB activation: control 353.7±45.15%; for MHC expression (vs 100% basal): control 757.6±85.7%; for PKAα expression: control 213.9±21.6%
# Method: Western blot was performed as described above.
# Protein concentration was determined by BCA. 4 μg for cells and 40-50 μg for tissue samples of protein was subjected to 6-15% SDS-PAGE and transferred to a nitrocellulose membrane. Membranes were blocked with 3% BSA in Tris-buffered saline containing 0.1% Tween-20 (TBS-T). After that, the membranes were incubated overnight at 4° C. with the primary antibodies for A2A, A2B, MHC (Thermo Fisher Scientific, Waltham, USA), AMPK, pAMPK (Thr172), p21, p16 (Cell signaling, Danvers, EEUU) (1:1000 each) and Pax-7 (Developmental Studies Hybridoma Bank, Houston, EEUU) (1:500 each).
# C2C12 myobundles = assay: C2C12 3D myobundle with IL-6 ± dipyridamole; assay type: cell-based; conditions: IL-6 2.5 μg/ml ± dipyridamole 1 μM, 14 days; Sham 890±39
# Text: C2C12 myobundles were fabricated following the protocol described by Bursac group (see references in ref. 44). Briefly, molds of polydimethylsiloxane (PDMS) designed for 12-well plates were created from Teflon masters with semicylindrical wells. These molds were sterilized, coated with 0.2% (w/v) Pluronic F-127 (Invitrogen) to prevent tissue adhesion, and paired with laser-cut Cerex frames (9×9 mm^2, 1-mm-wide rim) for myobundle attachment. The frames served as an anchor and guide during hydrogel compaction, ensuring uniaxial cell alignment. C2C12 cells were encapsulated in a hydrogel solution, including bovine fibrinogen (Sigma-Aldrich), matrigel (Corning), bovine thrombin (Sigma-Aldrich), and growth medium as concentration of bursac group indicates Referencias. The cell/hydrogel mixture was polymerized in the PDMS molds, and myobundles were cultured in a humidified chamber at 37° C., in 95% air and 5% CO2. After 4 days, the frames with myobundles were suspended in DM with treatments. DM and treatments are replaced every two days. GM and DM media contained 6-aminocaproic acid to reduce fibrinolysis. […] After the 14 days of treatment a bright-field photograph was taken to analyze the thickness of the fiber at its midpoint, and subsequently, they were embedded in OCT medium. […]
molecule,measurement,setting,value
C[C@H](Cn1cnc2c(N)ncnc21)OCP(=O)(O)O [tenofovir],pAMPK (Western blot),C2C12 [1],1.15±0.05
same,PKAα protein expression (% of basal),"C2C12 [2]; 1 μM each, day 4, control 292±65%",215±90% and 215.8±94.2%
same,pCREB (% of basal),"C2C12 [2]; 1 μM, day 4, control 247±30%",154±9%
same,EPAC2 protein expression,"C2C12 [2]; 1 μM, within differentiation",maintained the expression similar to basal levels
same,Body weight lost,[3],~10%
same,cAMP levels,C2C12 [4],0.24±0.07
same,Intracellular ATP,"C2C12 [5]; 1 μM each, day 1, control 4.93±0.02",11.56 ± 0.26 nM and 11.74 ± 0.08 nM
same,Intracellular AMP/ATP ratio,"C2C12 [5]; 1 μM each, day 3, control 1.88±0.12",0.62±0.03
same,Extracellular ATP,"C2C12 [5]; 1 μM each, day 4, control 14.7±0.5",10.67 ± 0.28 nM
same,Intracellular adenosine,"C2C12 [5]; 1 μM, day 4, control 10.87±0.73",did not change
same,Intracellular inosine,"C2C12 [5]; 1 μM, day 4, control 11.07±0.54",did not modulate
same,Intracellular AMP,"C2C12 [5]; 1 μM, day 4, control 12.10±0.73",6.33 ± 0.35 nM
same,Extracellular adenosine,"C2C12 [5]; 1 μM, day 4 of differentiation, control 11.6±0.81",6.65 ± 0.54 nM
same,Adenosine A2B receptor protein expression (% of basal),"C2C12 [6]; 1 μM each, day 4",553±47%
same,A3 receptor protein expression,"C2C12 [6]; 1 μM, compared to control",did not change
same,P2X7 protein expression (% of basal),"C2C12 [6]; 1 μM, day 4",89±19%
same,Proliferation compared to control,C2C12 cells; 1 μM,63.3±5%
same,Proliferation compared to control,C2C12 cells; 10 μM,62.8±6.4%
same,AMPK activation,C2C12 [7],1.02±0.19
same,MHC protein expression (% of basal),"C2C12 [8]; 1 μM each, day 1",1429±379% and 1153±131%
same,PAX7 protein expression (% of basal),"C2C12 [8]; 1 μM, day 1, control 315±58%",101±23%
same,MyoD protein expression (% of basal),"C2C12 [8]; 1 μM, day 2, control 182±8%",389±33%
same,Myf5 protein expression (% of basal),"C2C12 [8]; 1 μM, first 2 days of differentiation",142±23%
"INFγ: pro-inflammatory cytokine used at 1 μg/ml on C2C12 (protein, UniProt P01580 23-155, looked up) Interferon gamma: HGTVIESLESLNNYFNSSGIDVEEKSLFLDIWRNWQKDGDMKILQSQIISFYLRLFEVLKDNQAISNNISVIESHLITTFFSNSKAKKDAFMSIAKFEVNNPQVQRQAFNELIRVVHQLLPESSLRKRKRSRC",PAX7 expression (vs 100% basal),C2C12 myoblast cell line,114±11%
same,A2BR expression,"C2C12 myoblast cell line; 24 h, control 112.9±4.7%",69.3±1.9%
same,A2BR expression,"C2C12 myoblast cell line; 4 days, control 172.7±12.6%",66.03±20.3%
same,AMPK activation,C2C12 myoblast cell line,80.4±6.1%
same,CREB activation,C2C12 myoblast cell line,176.7±27.8%
same,MHC expression (vs 100% basal),C2C12 myoblast cell line,123.1±20.3%
same,PKAα expression,C2C12 myoblast cell line,101.7±3.7%
"IL-6: pro-inflammatory cytokine used at 2.5 μg/ml on C2C12 (protein, UniProt P08505 25-211, looked up) Interleukin-6: FPTSQVRRGDFTEDTTPNRPVYTTSQVGGLITHVLWEIVEMRKELCNGNSDCMNNDDALAENNLKLPEIQRNDGCYQTGYNQEICLLKISSGLLEYHSYLEYMKNNLKDNKKDKARVLQRDTETLIHIFNQEVKDLHKIVLPTPISNALLTDKLESQKEWLRTKTIQFILKSLEEFLKVTLRSTRQT",Myobundle thickness,C2C12 myobundles,616.3±22.9 μm
same,PAX7 expression (vs 100% basal),C2C12 myoblast cell line,121±8%
same,A2BR expression,"C2C12 myoblast cell line; 24 h, control 112.9±4.7%",75.8±2.2%
same,A2BR expression,"C2C12 myoblast cell line; 4 days, control 172.7±12.6%",67.6±3%
same,AMPK activation,C2C12 myoblast cell line,80.9±5.8%
same,CREB activation,C2C12 myoblast cell line,163.4±19.26%
same,MHC expression (vs 100% basal),C2C12 myoblast cell line,127.7±15.8%
same,PKAα expression,C2C12 myoblast cell line,107±5.8%
